# From patent US20180071317A1, “USE OF AGENTS THAT ALTER THE PERITUMORAL ENVIRONMENT FOR THE TREATMENT OF CANCER” (SERVICIO ANDALUZ DE SALUD, priority 2011, published 2018)
# Columns and labels:
# [1] = test system: human primary fibroblasts (PHF); experiment: Marker expression (immunohistochemistry) in human primary fibroblasts with SP alone or with NK1 antagonists; type: cell-based; settings: SP 1 μM + antagonist 1 μM; 48 h;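 further: primary human dermal fibroblasts, immunostained with rabbit polyclonal antibodies against each marker, value is percentage of stained cells among all cells counted in 20 fields at 400× per section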
# Protocol: These PHF were obtained and purified from samples obtained from the dermis of the skin of healthy volunteers as described in De Bari et al (De Bari et al. 2001). Briefly, small pieces of skin dermis were digested in a solution of hyaluronidase (Sigma-Aldrich, USA) at a concentration of 1 mg/ml for 15 minutes at 37° C. and then treated with 6 mg/ml collagenase type IV (Invitrogen) for 2 hours at 37° C. Then, the cells were washed, resuspended in DMEM culture medium with high glucose (Dulbecco's Modified Eagle's Medium, Invitrogen) supplemented with 1% antibiotic-antimycotic (Invitrogen) and 1% pyruvate Sodium (Invitrogen), and seeded in culture dishes at a concentration of 10,000 cells per square centimeter. When the cells reached confluence, adherent cells were detached using 0.5% sterile trypsin (Invitrogen) and used between passages 3 and 9. For tests shown below, the PHF were plated in 24-well plates at a concentration of 25,000 cells per well.
# After 48 hours of culture, cells were harvested and paraffin cell-blocks for immunohistochemical analysis were constructed, as previously explained in Example 1.
# In immunohistochemical assays the expression of the following markers were studied: TGFα (SAB4502953), TGF1 (SAB4502954), TGFβ2 (SAB4502956), TGFβ3 (SAB4502957), SPARC (HPA002989), MMP-3 (HPA007875) MMP-7 (SAB4501894), MMP-9 (SAB4501896), MMP-11 (SAB4501898), MMP-13 (SAB4501900) and MMP-14 (SAB4501901) using specific antibodies against them. All antibodies used were rabbit polyclonal antibodies obtained from Sigma-Aldrich and were used at a concentration of 1/1000. All experiments were carried out sixfold.
# On each of the six sections cell counts were performed in 20 high power fields (400×) through an Olympus microscope (model CX31) to assess the immunostaining. On each of the fields total cell number and number of cells displaying immunostaining were counted, being then the percentage of cells displaying said immunostaining.
# [2] = test system: human primary macrophages (PHM); experiment: Marker expression (immunohistochemistry) in human primary macrophages with SP alone or with NK1 antagonists; type: cell-based; settings: SP 1 μM + antagonist 1 μM; 48 h
# Protocol: In this sense the next step was to analyze the effect exerted by the treatment with non-peptide NK1 antagonists in human primary macrophages (PHM) obtained and purified from pleural effusion samples obtained from men with chronic age range between 45 and 55 years. Briefly, the pleural fluid from chronic (rich in macrophages) was centrifuged.
# After 48 hours of culture, cells were harvested and cellular paraffin blocks were constructed for immunohistochemical analysis (see Example 1). To analyze the expression of markers EGF, MMP-9, VEGF and IL-8 antibodies were used as follows: EGF (rabbit monoclonal antibody, anti-EGF; 07-1432. Merck-Millipore), MMP-9 (polyclonal rabbit anti-MMP-9: SAB4501896, Sigma-Aldrich), VEGF (mouse monoclonal anti-VEGF, GF25-100UG, Merck-Millipore) and TNF-α (mouse monoclonal anti-TNF-α, number MAB 1021 catalogue, obtained from Merck-Millipore). All of these antibodies were used at a concentration of 1/1000. System for labelling with a secondary antibody specific for the primary antibodies obtained from rabbit or mouse was used, as was necessary in each case, both the Envision (Dako). All experiments were carried out sixfold.
# [3] = test system: fibroblasts (PHF) co-cultured with tumor cells of human pancreatic adenocarcinoma (CAPAN-1); experiment: Marker expression (IHC) in PHF co-cultured with CAPAN-1 tumor cells; type: cell-based; settings: co-culture with CAPAN-1; SP 1 μM + antagonist 1 μM; 48 h;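 further: cultures grown in fresh plasma from a healthy human donor, run in six replicates, value is percent of fibroblasts positive for each marker, compared with fibroblasts cultured alone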
# [4] = test system: fibroblasts (PHF) co-cultured with tumor cells of human breast carcinoma (MCF-7); experiment: Marker expression (IHC) in PHF co-cultured with MCF-7 tumor cells; type: cell-based; settings: co-culture with MCF-7; SP 1 μM + antagonist 1 μM; 48 h;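 further: value is the percentage of fibroblasts positive for each marker, with fibroblasts cultured alone as reference, grown in fresh plasma from a healthy donor, six replicates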
# Protocol: (§1) All cultures were maintained 48 hours, following which the same cells were included in paraffin blocks for subsequent analysis of the expression of different markers by immunohistochemistry (see Example 1). […] All experiments were carried out sixfold. Analyzed markers in fibroblast cells (stromal cells) were: TGF-α, TGF-β1, TGF-β2, TGF-β3, SPARC, MMP-3, MMP-7, MMP-9, MMP-11, MMP-13 and MMP-14.
# [5] = test system: fibroblasts (PHF) co-cultured with tumor cells, ovarian carcinoma (EFO-27); experiment: Marker expression (IHC) in PHF co-cultured with EFO-27 tumor cells; type: cell-based, human; settings: co-culture with EFO-27; SP 1 μM + antagonist 1 μM; 48 h;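 further: values are the percentage of PHF fibroblasts positive for each marker, cultured in fresh plasma from a healthy human donor, each experiment run in six replicates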
# Protocol: as §1
# [6] = test system: fibroblasts (PHF) co-cultured with human choriocarcinoma tumor cells (AC-1M32); experiment: Marker expression (IHC) in PHF co-cultured with AC-1M32 tumor cells; type: cell-based; settings: co-culture with AC-1M32; SP 1 μM + antagonist 1 μM; 48 h;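 further: Read-out is the percentage of PHF fibroblasts positive for each marker, with cells grown in fresh healthy-donor blood plasma, six replicates, reference being fibroblasts cultured alone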
# Protocol: as §1
# [7] = test system: fibroblasts (PHF) co-cultivated with tumor cell carcinoma of urinary bladder (5637); experiment: Marker expression (IHC) in PHF co-cultured with 5637 tumor cells; type: cell-based, human; settings: co-culture with 5637; SP 1 μM + antagonist 1 μM; 48 h
# Protocol: as §1
# [8] = test system: tumor cells from primary human tumors (PI3 Kinase pathway); experiment: Proliferation of primary human tumor cells (AKT modified or unchanged) alone or with stromal fibroblasts; type: cell-based; settings: antagonist 1 μM
# [9] = test system: primary human tumor cells; experiment: Proliferation of primary human tumor cells with low dose Aprepitant alone or with fibroblasts, leukocytes or macrophages; settings: low dose (5 nanomolar)
structure (smiles),measurement,setting,value
C[C@@H](O[C@H]1OCCN(Cc2n[nH]c(=O)[nH]2)[C@H]1c1ccc(F)cc1)c1cc(C(F)(F)F)cc(C(F)(F)F)c1 [Aprepitant],PHF cells expressing MMP-3,[1],0%
same,PHF cells expressing MMP-7,[1],0%
same,PHF cells expressing MMP-9,[1],0%
same,PHF cells expressing MMP-11,[1],0%
same,PHF cells expressing MMP-13,[1],0%
same,PHF cells expressing MMP-14,[1],0%
same,PHF cells expressing SPARC,[1],0%
same,PHF cells expressing TGFα,[1],0%
same,PHF cells expressing TGFβ 1,[1],0%
same,PHF cells expressing TGFβ 2,[1],0%
same,PHF cells expressing TGFβ 3,[1],0%
same,macrophages expressing EGF,[2],0%
same,macrophages expressing MMP-9,[2],0%
same,macrophages expressing VEGF,[2],0%
same,PHF cells expressing MMP-3,[3],0%
same,PHF cells expressing MMP-7,[3],0%
same,PHF cells expressing MMP-9,[3],0%
same,PHF cells expressing MMP-11,[3],0%
same,PHF cells expressing MMP-13,[3],0%
same,PHF cells expressing MMP-14,[3],0%
same,PHF cells expressing SPARC,[3],0%
same,PHF cells expressing TGF-α,[3],0%
same,PHF cells expressing TGF-β1,[3],0%
same,PHF cells expressing TGF-β2,[3],0%
same,PHF cells expressing TGF-β3,[3],0%
same,PHF cells expressing MMP-3,[4],0%
same,PHF cells expressing MMP-7,[4],0%
same,PHF cells expressing MMP-9,[4],0%
same,PHF cells expressing MMP-11,[4],0%
same,PHF cells expressing MMP-13,[4],0%
same,PHF cells expressing MMP-14,[4],0%
same,PHF cells expressing SPARC,[4],0%
same,PHF cells expressing TGF-α,[4],0%
same,PHF cells expressing TGF-β1,[4],0%
same,PHF cells expressing TGF-β2,[4],0%
same,PHF cells expressing TGF-β3,[4],0%
same,PHF cells expressing MMP-3,[5],0%
same,PHF cells expressing MMP-7,[5],0%
same,PHF cells expressing MMP-9,[5],0%
same,PHF cells expressing MMP-11,[5],0%
same,PHF cells expressing MMP-13,[5],0%
same,PHF cells expressing MMP-14,[5],0%
same,PHF cells expressing SPARC,[5],0%
same,PHF cells expressing TGF-α,[5],0%
same,PHF cells expressing TGF-β1,[5],0%
same,PHF cells expressing TGF-β2,[5],0%
same,PHF cells expressing TGF-β3,[5],0%
same,PHF cells expressing MMP-3,[6],0%
same,PHF cells expressing MMP-7,[6],0%
same,PHF cells expressing MMP-9,[6],0%
same,PHF cells expressing MMP-11,[6],0%
same,PHF cells expressing MMP-13,[6],0%
same,PHF cells expressing MMP-14,[6],0%
same,PHF cells expressing SPARC,[6],0%
same,PHF cells expressing TGF-α,[6],0%
same,PHF cells expressing TGF-β1,[6],0%
same,PHF cells expressing TGF-β2,[6],0%
same,PHF cells expressing TGF-β3,[6],0%
same,PHF cells expressing MMP-3,[7],0%
same,PHF cells expressing MMP-7,[7],0%
same,PHF cells expressing MMP-9,[7],0%
same,PHF cells expressing MMP-11,[7],0%
same,PHF cells expressing MMP-13,[7],0%
same,PHF cells expressing MMP-14,[7],0%
same,PHF cells expressing SPARC,[7],0%
same,PHF cells expressing TGF-α,[7],0%
same,PHF cells expressing TGF-β1,[7],0%
same,PHF cells expressing TGF-β2,[7],0%
same,PHF cells expressing TGF-β3,[7],0%
same,growth of primary tumor cells cultured alone (in words),[8]; AKT modified or unchanged,only inhibits the growth of cells in which said receptor acts through the PI3 Kinase pathway
same,proliferation of primary tumor cells co-cultured with stromal fibroblasts (in words),[8]; irrespective of PI3 kinases pathway integrity,produces a proliferation of inhibition of tumor cells
same,growth of primary tumor cells cultured alone (in words),[9],does not inhibit the growth of tumor cells at low dose
same,proliferation of primary tumor cells co-cultured with stromal fibroblasts and immune/inflammatory cells (in words),[9],produces a proliferation of inhibition of tumor cells
